We go through 24 molecules from patent publication US4333941A, “Inhibition of enveloped viruses with phenyl ketones” (The Dow Chemical Company, priority 1977, dated 1982).

Series [1] has as its system HSV-1. As to the kind of experiment: Inactivation of HSV-1, plaque assay on Vero or HeLa cells (Example 1). Type of series: cell-based, herpes simplex virus type I. The note with it: Human alphaherpesvirus 1, 1 h, one hour at 37° C., versus water control, read-out: Concentration Producing 50% Virus Inhibition.
Series [2] has as its system HSV-2. Kind of series: In vivo treatment of genital cutaneous mucosa infected with HSV-2 (Example 8). Particulars: all the animals, including placebo and control.
Series [3] relates to HSV-2. As to the kind of experiment: Inactivation of one strain of HSV-2 (Example 3). The note with it: Human alphaherpesvirus 2, 1 h, read-out: concentration for ninety nine percent inactivation.
Series [4] concerns influenza. As to the kind of experiment: Inactivation of influenza virus (Example 2). Type of series: cell-based. The note with it: unidentified influenza virus, 1 h.
The subject of series [5] is vaccinia virus. As to the kind of experiment: microbe, parasite or virus in culture. Type of series: cell-based. The note with it: Orthopoxvirus vaccinia, 1 h, read-out: concentration for 50 percent inactivation.
Series [6] concerns NDV (Newcastle's disease virus). Kind of series: organism not typed. It is filed as cell-based. Particulars: 1 h, read-out: concentration for fifty percent inactivation.
Series [7] has as its system poliovirus. Type of series: cell-based. The note with it: poliovirus (picorna viruses).
In series [8] the test system is HSV-2. The note with it: guinea pig, in vivo.
Series [9] concerns SFV (semliki forest virus). As to the kind of experiment: Inactivation of SFV (Example 2). Type of series: cell-based. Particulars: 1 h, one hour exposure, read-out: concentration for fifty percent inactivation.
Series [10] deals with HSV-1. As to the kind of experiment: Inactivation of HSV-1 (Example 2). It is filed as cell-based, herpes simplex virus type I. The note with it: Human alphaherpesvirus 1, 1 h.
The subject of series [11] is HSV-1. The note with it: guinea pig, in vivo.
For series [12], the system named is rhinovirus. Kind of series: Inactivation of rhinovirus (Example 2). Type of series: cell-based.
The test system of series [13] is HSV-1, Stohr strain. Kind of series: In vivo treatment of HSV-1 skin infection in guinea pigs (Example 5). The note with it: 2 percent in 5 percent ethanol, topical hourly.
Series [14] has as its system mice. Particulars: cited from earlier work.
Series [15] relates to VSV (vesicular stomatitis virus). As to the kind of experiment: microbe, parasite or virus in culture. It is filed as cell-based. The note with it: 1 h.
Series [16] deals with HSV-1. As to the kind of experiment: Inactivation of two strains of HSV-1 (Example 3). Particulars: Human alphaherpesvirus 1, 1 h, read-out: concentration for ninety nine percent inactivation.
Where [17] appears, read: read-out: concentration for fifty percent inactivation.

The structures appear in SMILES notation. Structures can show the parent of a compound that is named as a salt. Where two headings read alike, the source gives them in different places.

Take `CCCCOc1ccc(C(=O)CCN2CCOCC2)cc1`: in series [1], the IC50 came out at 125 µM.
The same measure, in the same setting: to `CCCCOc1ccc(C(=O)C(C)C[N+]2(C)CCCCC2)cc1` (stereo not drawn) [1-[2-(4-butoxybenzoyl)-2-methylethyl]-1-methyl-piperidinium iodide] belongs greater than 750 µM; to `CCCCOc1ccc(C(=O)CC[N+]2(C)CCCCC2)cc1` [1-[2-(4-butoxybenzoyl)-ethyl]-1-methyl piperidinium iodide], less than 125 µM.
Still for that read-out and setting: the figure for `O=C(CCN1CCCCC1)c1ccc(Cl)c(Cl)c1` [3',4'-Dichloro-3-piperidino-propiophenone . HCl] is less than 125 µM; for `O=C(CCN1CCCCC1)c1cccc(Cl)c1` [3'-Chloro-3-piperidino-propiophenone . HCl] it is 125 µM.
As to `CC(=O)C(CN1CCCCC1)c1ccccc1` (stereo not drawn) [3-Phenyl-4-piperidino-2-butanone . HCl], in series [1], the IC50 turned out to be 550 µM.
Still for that read-out and setting: the figure for `CCCCOc1ccc(C(=O)CCN(CC)CC)cc1` [4'-Butoxy-3-diethylamino-propiophenone . HCl] is less than 125 µM.
Turning to `CCOc1ccc(C(=O)CCN2CCCCC2)cc1` [4'-Ethoxy-3-piperidino-propiophenone . HCl], the IC50 in [1] came to 1500 µM.
Same read-out and setting: the figure for `CCCCCCOc1ccc(C(=O)CCN2CCCCC2)cc1` [4'-Hexyloxy-3-piperidino-propiophenone . HCl] is less than 125 µM; for `CC(C)COc1ccc(C(=O)CCN2CCCCC2)cc1` [4'-Isobutoxy-3-piperidino-propiophenone . HCl] it is 200 µM; for `CCCOc1ccc(C(=O)CCN2CCCCC2)cc1` [4'-Propoxy-3-piperidino-propiophenone . HCl] it is 400 µM.
As to `CCCCCCCCCCOc1ccc(C(=O)CCN2CCCCC2)cc1` [4'-n-Decyloxy-3-piperidino-propiophenone . HCl], the IC50 in [1] is less than 125 µM.
The same measure, in the same setting: the figure for `CCCCCCCCOc1ccc(C(=O)CCN2CCCCC2)cc1` [4'-n-Octyloxy-3-piperidino-propiophenone . HCl] is less than 125 µM.
The same measure, in the same setting: the figure for `COc1ccc(C(=O)CCN2CCCCC2)cc1` [4-Methoxy-3-piperidino propiophenone . HCl] is 125 µM.
Turning to `CCCCOc1ccc(C(=O)CCN2CCCCC2)cc1` [Dyclonine . HCl, 4-n-butoxy-β-(1-piperidyl)-propiophenone hydrochloride], the values for the hyperkeratosis result in series [2] and in series [8] were “hyperkeratosis was noted in all the animals” and “mild hyperkeratosis noted in some of the animals”, respectively. Moreover, the IC99 in series [3] and in series [16] was less than 1000 µM throughout. For the same molecule, the IC50 in series [4] (setting [17]) is no more than 1000 µM; in series [5] it was no more than 2000 µM; in [6], no more than 1000 µM; in [9], no more than 1000 µM; in [1] it was 125 µM; in series [10] (setting [17]) it was no more than 1000 µM. In addition, in [15] (setting [17]), the IC50 was no more than 1000 µM. For the same molecule, the killing at 500 µM in series [4] (read-out: inactivation of influenza virus) was roughly 80%; in [10] (read-out: inactivation of HSV) it was greater than 90%; in series [15] (read-out: inactivation of VSV) it was greater than 99%. Also, the percent inactivated entry in series [7] and in series [12] was “less than 50%” in each case. For the same molecule, the detrimental adverse reactions entry in series [8] is “No detrimental adverse reactions were observed”. The “Candida (yeast) infection” value in [11] is “a Candida (yeast) infection developed”. Besides, the “sites with herpes lesions” value in series [13] (48 hours after inoculation, placebo 88 percent) is reported as 31% of the sites; in [13] (by 72 hours), 7% of the sites. Further, the entries for the “acute LD50” value in series [14] (intraperitoneal injection) and in series [14] (intravenous) were 52.8 mg/kg and 19.5 mg/kg, respectively.
`CCCCOc1cc(C(=O)OCCN(CC)CC)ccc1N` [benoxinate . HCl]: in [1], the IC50 is greater than 2000 µM.
Still for that read-out and setting: the figure for `CCOC(=O)c1ccc(N)cc1` [benzocaine] is greater than 2000 µM.
On the same count and under the same terms, to `CCCCOc1cc(C(=O)NCCN(CC)CC)c2ccccc2n1` [dibucaine . HCl] belongs 800 µM.
For `CCN(CC)CC(=O)Nc1c(C)cccc1C` [lidocaine . HCl], the IC50 in series [1] was greater than 2000 µM.
On the same count and under the same terms, the figure for `CCOc1ccc(N=C(C)Nc2ccc(OCC)cc2)cc1` [phenacaine . HCl] is greater than 2000 µM.
On the same count and under the same terms, to `CCCCOc1ccc(OCCCN2CCOCC2)cc1` [pramoxine . HCl] belongs 675 µM; to `CCN(CC)CCOC(=O)c1ccc(N)cc1` [procaine . HCl], greater than 2000 µM; to `CCCOc1ccc(C(=O)OCCN(CC)CC)cc1N` [proparacaine . HCl], greater than 2000 µM.
On the same count and under the same terms, to `CCCCNc1ccc(C(=O)OCCN(C)C)cc1` [tetracaine . HCl] belongs greater than 2000 µM.
